Test results as given in the NIST ThermoML archive (doi:10.1016/j.jct.2006.03.020).
Numbers after ± are expanded uncertainties. Blank lines part the entries; values can stand above or below the compound they belong to.

Tests used:
[1] = 298.15 K; 101.33 kPa; Liquid
[2] = excess molar enthalpy (molar enthalpy of mixing); xn = mol fraction of the nth substance listed; details: 298.15 K, 101 kPa, Liquid, Flow calorimetry

- mass density [1]: 668.73 ± 1.4 kg/m3
Structure (SMILES): C=CCCCC [hex-1-ene]

- mass density [1]: 882.09 ± 0.8 kg/m3
Structure (SMILES): C1CCOC1 [tetrahydrofuran]

- excess molar enthalpy ([2]; x1 = 0.0501): 0.0161 ± 0.000454 kcal/mol
- excess molar enthalpy ([2]; x1 = 0.097): 0.0304 ± 0.000669 kcal/mol
- excess molar enthalpy ([2]; x1 = 0.1507): 0.0446 ± 0.000884 kcal/mol
- excess molar enthalpy ([2]; x1 = 0.1994): 0.055 ± 0.00105 kcal/mol
- excess molar enthalpy ([2]; x1 = 0.2501): 0.0649 ± 0.00122 kcal/mol
- excess molar enthalpy ([2]; x1 = 0.3003): 0.0729 ± 0.00136 kcal/mol
- excess molar enthalpy ([2]; x1 = 0.3499): 0.0788 ± 0.00146 kcal/mol
- excess molar enthalpy ([2]; x1 = 0.3999): 0.0834 ± 0.00153 kcal/mol
- excess molar enthalpy ([2]; x1 = 0.45): 0.0859 ± 0.00158 kcal/mol
- excess molar enthalpy ([2]; x1 = 0.4977): 0.0876 ± 0.0016 kcal/mol
- excess molar enthalpy ([2]; x1 = 0.5494): 0.0869 ± 0.0016 kcal/mol
- excess molar enthalpy ([2]; x1 = 0.6006): 0.0844 ± 0.00155 kcal/mol
- excess molar enthalpy ([2]; x1 = 0.649): 0.0807 ± 0.00148 kcal/mol
- excess molar enthalpy ([2]; x1 = 0.6905): 0.0761 ± 0.00141 kcal/mol
- excess molar enthalpy ([2]; x1 = 0.7499): 0.0675 ± 0.00127 kcal/mol
- excess molar enthalpy ([2]; x1 = 0.7999): 0.0587 ± 0.00112 kcal/mol
- excess molar enthalpy ([2]; x1 = 0.8501): 0.0471 ± 0.000932 kcal/mol
- excess molar enthalpy ([2]; x1 = 0.8995): 0.0335 ± 0.000717 kcal/mol
- excess molar enthalpy ([2]; x1 = 0.95): 0.018 ± 0.000478 kcal/mol
Structure (SMILES): C=CCCCC [hex-1-ene] + C1CCOC1

- mass density [1]: 735.99 ± 0.74 kg/m3
Structure (SMILES): COC(C)(C)C [2-methoxy-2-methylpropane]

- mass density [1]: 848.1 ± 0.89 kg/m3
Structure (SMILES): CC1CCCO1 (stereo not drawn) [2-methyltetrahydrofuran]
